Data on seven compounds can be found in US7084176B2, “N-arylphenylacetamide derivatives and medicinal compositions containing the same” (Dainippon Pharmaceutical Co., Ltd., priority 2001, dated 2006).

Like-named read-outs stand apart in the source and are kept apart here. Bounds are passed on as bounds.

For data set [1] the following is noted: literature report; cited from earlier work.
Data set [2] relates to VR1 receptor. The note with it: animal pain model; VR1 receptor antagonist; cited from earlier work.
For data set [3], the system named is male Std:ddY mice. The experiment in a line: Phenyl-1,4-benzoquinone-induced writhing test. Type of data set: in vivo. The note with it: for ED50 / inhibition in vivo at 1 mg/kg / inhibition in vivo at 10 mg/kg: Mus musculus; for inhibition in vivo at 1 mg/kg / inhibition in vivo at 10 mg/kg: 1 h, read-out: Inhibitory percentage (%); for inhibition in vivo at 1 mg/kg: subcutaneously administered at a dose of 1 mg/kg. A digest of the protocol: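 Compounds were given orally suspended in 0.5% tragacanth; subcutaneous controls got saline with 10% Tween 80 and 10% ethanol. Writhing counts after phenyl-1,4-benzoquinone were compared with vehicle controls as % inhibition [(A−B)/A]×100. ED50 (mg/kg) was derived by logit analysis.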

Data set [4] deals with Jcl:SD strain male rats. The experiment in a line: Study of pungency (eye wiping test). The data set is classed as in vivo. The note with it: a drop into the eye of rats, counted for 3 minutes, average ± S.E.M. The method, then:
Experiment 2: Study of Pungency (Eye Wiping Test)
The pungency of the test compounds were studied referring to the method of Jancso et al. [Acta Physiol. Acad. Sci. Hung., 19, 113–131 (1961)] and the method of Szallasi et al. [Brit. J. Pharmacol., 119, 283–290 (1996)]. A test compound was dissolved in a physiological saline solution containing 10% ethanol and 10% Tween 80 into various concentrations (μg/ml), and a drop of the solution thereof was added dropwise into the eye of Jcl:SD strain male rats (5 to 25 […] per group, body weight; 220 to 280 g). Then, the number of the protective wiping movements with forefoot was counted for 3 minutes, and was considered as an index for pungency. The test results are expressed as average value±S.E.M., and the statistical significant differences between each test compound-treated group and the control group were analyzed using non-parametric Dunnett's multiple range test, and p<0.05 was considered as significant difference.

Where [5] appears, read: po, oral administration, writhing inhibition, logit analysis, read-out: ED50 (mg/kg po).
Where [6] appears, read: sc, subcutaneous administration, writhing inhibition, logit analysis, read-out: ED50 (mg/kg sc).
Where [7] appears, read: po, orally administered at a dose of 10 mg/kg, 60 minutes before PBQ.

Turning to `CCCCCc1ccc(C(=O)NCc2ccc(O)c(OC)c2)cc1` [N-(4-hydroxy-3-methoxybenzyl)-4-pentylbenzamide], the analgesic effect result in data set [1] is “no analgesic effect”.

Regarding `Oc1cc2c(cc1O)CN(C(=S)NCCc1ccc(Cl)cc1)CCC2` [capsazepin], the analgesic effect entry in data set [2] is “significant analgesic effect”.

`COc1cc(CC(=O)Nc2cccc(CCc3ccccc3)c2)ccc1OCCN` [Example 60, 4-(2-aminoethoxy)-3-methoxy-N-[3-(2-phenylethyl)phenyl]-phenylacetamide]: the ED50 in data set [3] (setting [5]) is no more than 1 mg/kg; in data set [3] (setting [6]), 0.83 mg/kg. Moreover, in data set [3] (sc, 60 minutes before PBQ), the inhibition in vivo at 1 mg/kg was found to be 50.5%. The “ED50 (mg/kg po)” value in data set [3] (oral administration, writhing inhibition, logit analysis, listed as Ex. 60) was found to be 0.68 mg/kg. The “Number of wiping movements” value in data set [4] (concentration 500 μg/ml) was “no significant increase”; in data set [4] (concentration 500 μg/ml, listed as Ex. 60), 4.2 ± 1.2; in data set [4] (concentration 1000 μg/ml) it was 8.4 ± 2.1.

As to `COc1cc(CC(=O)Nc2ccc3c(c2)C(=O)C(Cc2ccccc2)CC3)ccc1OCCN` (stereo not drawn) [Example 225, 4-(2-aminoethoxy)-3-methoxy-N-[1-oxo-2-phenylmethyl-1,2,3,4-tetrahydronaphthalen-7-yl]phenylacetamide], the inhibition in vivo at 10 mg/kg in data set [3] (setting [7]) was found to be 73.5%. The ED50 in data set [3] (setting [5]) is 4.79 mg/kg. Further, the “Number of wiping movements” value in data set [4] (concentration 500 μg/ml) is given as “no significant increase”; in data set [4] (concentration 500 μg/ml, listed as Ex. 225), 4.4 ± 2.1; in data set [4] (concentration 1000 μg/ml), 1.6 ± 1.2.

Turning to `COc1cc(CC(=O)Nc2cccc(-c3ccc4c(c3)OCO4)c2)ccc1OCCN` [Example 164, 4-(2-aminoethoxy)-N-[3-(2H-benzo[d]-1,3-dioxolan-5-yl)phenyl]-3-methoxyphenylacetamide], the “ED50 (mg/kg po)” value in data set [3] (oral administration, writhing inhibition, logit analysis) is 1.56 mg/kg. Besides, in data set [3] (writhing inhibition, orally administered at a dose of 10 mg/kg, 60 minutes before PBQ), the “Inhibitory percentage (%)” value is listed as 99.0%. The “Number of wiping movements” value in data set [4] (concentration 100 μg/ml) was 5.4 ± 2.8; in data set [4] (concentration 500 μg/ml), “no significant increase”; in data set [4] (concentration 500 μg/ml, listed as Ex. 164), 2.8 ± 1.7.

For the compound `COc1cc(CC(=O)Nc2cccc(C3CCC(C(C)(C)C)CC3)c2)ccc1OCCN` (stereo not drawn) [Example 62, 4-(2-aminoethoxy)-N-[3-(4-tert-butylcyclohexan-1-yl)phenyl]-3-methoxyphenylacetamide], the inhibition in vivo at 10 mg/kg in data set [3] (setting [7]) came out at 96.1%. Also, in data set [3] (sc, 60 minutes before PBQ), the inhibition in vivo at 1 mg/kg was 100%. For the same compound, the ED50 in data set [3] (setting [6]) came to 0.23 mg/kg. In addition, in data set [3] (oral administration, writhing inhibition, logit analysis, listed as Ex. 62), the “ED50 (mg/kg po)” value was 0.43 mg/kg. Further, the “Number of wiping movements” value in data set [4] (concentration 500 μg/ml) is listed as “no significant increase”; in data set [4] (concentration 500 μg/ml, listed as Ex. 62) it was 4.6 ± 1.2; in data set [4] (concentration 1000 μg/ml), 7.6 ± 1.4.

With `COc1cc(CC(=O)Nc2cccc(C3CCC(C(C)(C)C)CC3)c2)ccc1O` (stereo not drawn) [Example 20, N-[3-(4-tert-butylcyclohexan-1-yl)phenyl]-4-hydroxy-3-methoxyphenylacetamide], the inhibition in vivo at 10 mg/kg in data set [3] (setting [7]) was found to be 97.1%. The figures for the ED50 in data set [3] (setting [5]) and in data set [3] (setting [6]) were 1.28 mg/kg and no more than 0.1 mg/kg, respectively. The inhibition in vivo at 1 mg/kg in data set [3] (sc, 60 minutes before PBQ) came to 96.1%. The “ED50 (mg/kg sc)” value in data set [3] (subcutaneous administration, writhing inhibition, logit analysis, listed as Ex. 20) came out at 0.056 mg/kg. Besides, the “Number of wiping movements” value in data set [4] (concentration 100 μg/ml) came out at 5.0 ± 1.3; in data set [4] (concentration 500 μg/ml), 10.6 ± 0.7.
